# Legend:
# GR [1] = biological target: T1, GR (Homo sapiens, UniProt P04150); experiment: FP-based competitive ligand binding assay; design: GR was produced as a full length protein in insect cells and partially purified using ion exchange chromatography; made in house; host or cells: insect cells (baculovirus); conditions: for Ki: GR 4 nM, fluorescein-dexamethasone probe, 1-hour incubation at room temperature; for RBA: relative binding affinity, dexamethasone = 100
# T1 sequence (P04150 1-777): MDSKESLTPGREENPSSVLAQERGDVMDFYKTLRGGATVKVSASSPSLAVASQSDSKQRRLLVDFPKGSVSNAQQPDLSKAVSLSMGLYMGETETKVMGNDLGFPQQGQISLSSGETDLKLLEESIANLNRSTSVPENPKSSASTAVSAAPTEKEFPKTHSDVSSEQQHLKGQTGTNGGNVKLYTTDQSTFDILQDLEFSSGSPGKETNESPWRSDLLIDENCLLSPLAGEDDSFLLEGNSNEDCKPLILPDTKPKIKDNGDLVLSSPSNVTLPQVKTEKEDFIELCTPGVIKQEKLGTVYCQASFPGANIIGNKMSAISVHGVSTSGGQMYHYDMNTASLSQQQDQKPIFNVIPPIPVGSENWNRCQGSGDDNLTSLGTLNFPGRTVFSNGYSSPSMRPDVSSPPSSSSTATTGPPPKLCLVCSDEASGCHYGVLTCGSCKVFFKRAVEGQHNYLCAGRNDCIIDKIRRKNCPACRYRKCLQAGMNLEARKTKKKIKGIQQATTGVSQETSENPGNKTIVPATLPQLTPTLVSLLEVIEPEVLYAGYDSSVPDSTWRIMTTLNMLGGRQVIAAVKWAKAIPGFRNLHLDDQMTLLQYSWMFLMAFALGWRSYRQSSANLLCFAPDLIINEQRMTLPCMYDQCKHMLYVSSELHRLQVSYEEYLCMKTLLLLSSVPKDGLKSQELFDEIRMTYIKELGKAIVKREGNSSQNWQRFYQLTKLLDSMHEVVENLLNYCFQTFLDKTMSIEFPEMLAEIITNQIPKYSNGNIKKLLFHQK
# Description: FIG. 3A and B are graphs showing FP-based competition assays with recombinant GR (A) and PR-LBD (B). Serial dilutions of test steroids were prepared. […] Final incubation conditions were similar to those described in FIG. 3. The final concentration of GR used was 4 nM, and for PR-LBD it was 8 nM. After a 1-hour incubation at room temperature, the fluorescence polarization of each well was read, using wells lacking fluor as blanks.
# The other criteria used for validating a fluorescent steroid conjugate is the ability of known receptor ligands to compete with the fluor for binding to the receptor.
# GR [2] = biological target: T1, GR; conditions: literature RBA, dexamethasone = 100; cited from earlier work
compound,measurement,setting,value
CC(=O)OCC(=O)[C@@]12OC3(CCCC3)O[C@@H]1C[C@H]1[C@@H]3CCC4=CC(=O)C=C[C@]4(C)[C@@]3(F)[C@@H](O)C[C@@]12C [Amcinonide],Ki,GR [1],1.9 nM
same,RBA,GR [1],40
C[C@]12CCC(=O)C=C1CC[C@@H]1[C@@H]2[C@@H](O)C[C@@]2(C)[C@H]1CC[C@]2(O)C(=O)CO [Cortisol],RBA,GR [1],24
same,Literature Value,GR [2],33
CC1(C)O[C@@H]2C[C@H]3[C@@H]4C[C@H](F)C5=CC(=O)C=C[C@]5(C)[C@H]4[C@@H](O)C[C@]3(C)[C@]2(C(=O)CO)O1 [Flunisolide],Ki,GR [1],1 nM
same,RBA,GR [1],73
same,Literature Value,GR [2],100
CC(=O)OCC(=O)[C@@]12OC(C)(C)O[C@@H]1C[C@H]1[C@@H]3C[C@H](F)C4=CC(=O)C=C[C@]4(C)[C@@]3(F)[C@@H](O)C[C@@]12C [Fluocinonide],Ki,GR [1],4.4 nM
same,RBA,GR [1],17
CC1(C)O[C@@H]2C[C@H]3[C@@H]4CCC5=CC(=O)C=C[C@]5(C)[C@@]4(F)[C@@H](O)C[C@]3(C)[C@]2(C(=O)CO)O1 [Triamcinolone acetonide],Ki,GR [1],0.9 nM

# From patent publication US20020146741A1, “Processes for receptpor screening” (priority 2000, published 2002)
